Assay results from a melting point compilation (Tetko et al.; mined from patent text by program, amines drawn as free bases though some values may be those of a salt).
Residues, ends and D or L forms follow the SMILES beside them. *: point of attachment. OiPr = CC(C)O*

SMILES	melting point
Nc1ccc(SCC2CC2)cc1[N+](=O)[O-]	45 to 47 °C
CNC(=O)CNC(=S)c1cccnc1	135 to 137 °C
CCOC(=S)c1c(CC)nc2ccccn12	71 to 73 °C
COc1ccccc1NCCN1CCC(C(=O)c2ccc(F)cc2)CC1	116 to 120 °C
O=C(NC(=O)N(SC(Cl)(Cl)Cl)c1ccc(Oc2ccc(C(F)(F)F)cc2Cl)cc1)c1ccccc1Cl	68 to 71 °C
FC(F)(F)c1cc(Cl)c(-n2cc(I)c(C(F)(F)F)n2)c(Cl)c1	109 to 112 °C
O=C(C1CCN(c2ccncc2)CC1)N1CCN(S(=O)(=O)c2ccc(-c3ccccn3)cc2)CC1	224 to 226 °C
Cc1ccccc1C1CC(=O)c2c(C)ccnc2C1 (stereo unspecified)	104 to 106 °C
CCC(=O)N1c2ccccc2CC1C(=O)O (stereo unspecified)	173 to 175 °C
O=C(Cn1c(-c2cccc(Cl)c2)nc2cccnc21)NCCN1CCCCC1	114 to 115 °C
COC(=O)NC(=S)Nc1ccccc1NC(=O)CCl	156 to 158 °C
CNC(=O)N1CCSC1c1ccc(O)cc1 (stereo unspecified)	218 to 220 °C
O=C(Nc1ccc(C2=CCN(C(=O)Nc3ccc(OCC(O)CO)cc3Cl)CC2)cc1)Nc1ccccc1F (stereo unspecified)	161 to 165 °C
CC(=O)c1ccc(C2=CCCCCC2)cc1	36 to 38 °C
CN(c1ccccc1)c1nc(Cl)nc(N2CCOCC2)n1	93.5 to 95.5 °C
CCCn1c(=O)c2[nH]c(N3CCOCC3)nc2n(CCC)c1=O	251 to 252 °C
COCCCOc1cc(C[C@@H](C(=O)N2C(=O)OC[C@H]2Cc2ccccc2)C(C)C)ccc1OC	55 to 56 °C
O=C(O)CCCCCCC1=CC(O)CC1=O (stereo unspecified)	47 to 48.5 °C
CN(C)S(=O)(=O)c1ccc2c(c1)S(=O)(=O)NC1CCCN21 (stereo unspecified)	240 to 243 °C
CNC(=O)[C@@H](C[C@H](O)[C@H](CC1CCCCC1)NC(=O)[C@H](Cc1cscn1)NC(=O)[C@@H](CC(=O)N1CCOCC1)Cc1ccc(OC)cc1)C(C)C	128 to 130 °C
O=C(Nc1ccc2cc(CN3CCCC3)ccc2c1)c1ccc(-c2ccc(Cl)cc2)cc1	214 to 217 °C

SMILES	melting point
CC(=O)c1ccccc1-c1noc2ccccc12	108 °C
N#CSc1ccc(C=O)cc1	82 to 83 °C
COC(=O)c1ccc(-c2cc(-c3ccccc3)no2)cc1	205 to 206 °C
Nc1nc(-c2ccccc2)nc2cccc(Oc3ccccc3)c12	190 to 191 °C
O=S(=O)(F)CCCCCCCc1ccc(OCc2ccccc2)cc1	35 to 38 °C
CCC(=O)c1ccc(O)c(CNC(=O)CCl)c1	143 to 145 °C
CC(=O)Oc1cc([N+](=O)[O-])cc([N+](=O)[O-])c1OC(C)=O	115 to 117 °C
O=C(OC1COCCC1=O)c1ccccc1 (stereo unspecified)	76 to 77 °C
COCCCCCCCCCCCCCCSCCCO	35 to 37 °C
CCCS(=O)(=O)N(C)CCc1ccncc1	109 to 110 °C
CC(=S)NCC1CC(c2ccc(-n3cccc3)c(F)c2)=NO1 (single isomer, unassigned; (-))	152 to 153 °C
CCOC(=O)c1c(N2CCNCC2)c2cccnc2n(Cc2ccccc2)c1=O	120 °C
CC(C)OC(=O)C(CO)NC(=O)C(CC(=O)O)NC(=O)C(C)N (stereo not drawn) (H-Ala-Asp-Ser-OiPr; configuration not given here)	222 to 234 °C
O=C(c1ccc(F)cc1)N1CC2CC2(c2ccc(Cl)cc2)C1 (stereo unspecified)	130 to 132 °C
N#CN1CCC(Nc2ncc3ncnc(Nc4ccc(F)c(Cl)c4)c3n2)CC1	245 to 247 °C
CCOc1cc(C(O)C(C)C)cc2c1OC(C)(C)C2 (stereo unspecified)	100 to 101 °C
C[C@H]1COC(=O)N1c1nc(-c2ccc(C#N)cc2)cs1	205 to 207 °C
CC12CCC3c4ccc(O)cc4CC(O)C3C1CCC2O (stereo unspecified)	254 to 257 °C
N#CC(=C1CCCN1)c1ccc(-c2ccccc2)cc1	168 to 170 °C
CN(C)CCOc1cccc(C=CC(=O)N2CCc3c([nH]c4ccccc34)C2c2ccc3c(c2)OCO3)c1 (stereo unspecified)	76 to 78 °C
CC1(C)CC(C)(c2ccc(O)cc2)c2cc(O)ccc21 (stereo unspecified)	202 °C

Results, then the molecule that gave them:

melting point	SMILES
218 to 223 °C	O=C(C#Cc1ccc(C(F)(F)F)cc1Cl)Nc1ccc2oc(CN3CCCC3)nc2c1
113 to 116 °C	COc1cc(N)c(Cl)cc1C(=O)NCC1CCN(CCCCCC(=O)c2ccc3ccccc3c2)CC1
148 to 151 °C	Cc1cc(F)ccc1-c1nc(N[C@H]2CC[C@H](O)CC2)nc2c1ccc(=O)n2-c1ccccc1F
67 to 68 °C	CCOc1cnc(-c2cc(Cl)c(OC)c3ccccc23)s1
71 to 74 °C	COC(=O)c1snc(-c2cc(C(F)(F)F)cc(C(F)(F)F)c2)c1C(=O)OC
245 to 247 °C	Cc1c(N2CC(O)C2)c(F)cc2c(=O)c(C(=O)O)cn(-c3nc(N)c(F)cc3F)c12
258 to 259 °C	O=C(O)C1=Cc2cc(Cl)cc(-c3cccs3)c2OC1C(F)(F)F (stereo unspecified)
115 to 116 °C	CC(C)n1nc(-c2sc(NCc3ccco3)nc2-c2ccccc2)ccc1=O
177 to 180 °C	COc1ccc2cc(CC(=O)NO)ccc2c1
80 to 82 °C	CCCc1nn(C)c2c(OCCOc3ccc(CC(OCC)C(=O)OCC)cc3)nc(-c3ccccc3)nc12 (stereo unspecified)
192 to 194 °C	CCOC(=O)N1C(=O)NC(=O)C12C(=O)N(Cc1ccc(Cl)c(Cl)c1)c1ccccc12 (stereo unspecified)
108 to 110 °C	COC(=O)c1ccc(OCCCN2CCC(C(=O)c3nc4ccccc4s3)CC2)cc1
178 °C	CC(C)(C)OC(=O)CCc1cc(S(C)(=O)=O)cc(-c2nc(=O)c3ccc(F)cc3s2)n1
295 °C	CNC(=O)c1ccccc1Nc1nc(Nc2ccc3c(c2)C(C)(C)CCC(=O)N3)ncc1Cl
124 to 126 °C	Cc1cccc(-c2sc3ccc(C(F)(F)F)cc3c2O)c1
75 °C	CSc1nc(Cl)c(-c2c(F)cc(F)cc2F)c(Cl)n1
157 °C	Cc1nc(NC(=O)Nc2ccccc2)n(C)c(=O)c1CCN1CCC(Cc2nc3ccccc3n2Cc2ccc(F)cc2)CC1
178 to 180 °C	Cn1c(=O)c(C(=O)O)c(-c2ccccc2Cl)c2cccnc21
> 230 °C	CSc1nn2c(N)cc(C)nc2c1S(=O)(=O)c1ccc(I)cc1
77 to 78 °C	Cc1cc2ccccc2c(-c2cccc(I)c2)n1
146 to 152 °C	CCc1cc2c(=O)c3cccc(C(=O)OCOC(=O)C(C)(C)C)c3n(Cc3ccc(-c4ccccc4-c4nnn[nH]4)cc3)c2s1
189 to 191 °C	CCOCc1nc2c(N)nc3ccccc3c2n1CC(C)(O)CC (stereo unspecified)
137 to 138 °C	CCOc1nn(-c2ccc(C(F)(F)F)cn2)cc1CCCOc1cc(CCC(=O)O)n(C)n1
109 to 111 °C	CCOC(=O)COc1ccc(Nc2nccc(-c3ccncc3)n2)cc1
219 to 220 °C	CSC(=NC#N)N[C@@H]1c2cc(S(C)(=O)=O)ccc2OC(C)(C)[C@H]1O (relative stereo)
174 °C	Cn1ccnc1Sc1ccc2[nH]nc(N)c2c1
209 to 211 °C	O=C1NC(=O)C2(CC(O)c3ccc(F)cc32)N1 (stereo unspecified)
81 to 83 °C	COc1ccc(-c2cccc([N+](=O)[O-])c2C)cn1
124 to 125 °C	COc1ccc(CC#N)cc1C(=O)NCc1ccc(C(F)(F)F)cc1
